Measured values from patent US12686673B2 (Blueprint Medicines Corporation, priority 2020, dated 2026).
pIC50: −log10 of the molar value. Structures can show the parent of a compound that is named as a salt. Where two headings read alike, the source gives them in different places.

Experiments:
Type in all cases: cell-based
[1] = target: EGFR(D770_N771insSVD) expressing Ba/F3 stable cell line (Homo sapiens, UniProt P00533, DUP768-770, cells depend on it); test: Cellular proliferation (Alamar Blue) assay, EGFR D770_N771insSVD Ba/F3; settings: 72 hr, read-out: D770 IC50
EGFR(D770_N771insSVD) expressing Ba/F3 stable cell line, sequence (P00533 with tags, fused parts or gaps DUP768-770): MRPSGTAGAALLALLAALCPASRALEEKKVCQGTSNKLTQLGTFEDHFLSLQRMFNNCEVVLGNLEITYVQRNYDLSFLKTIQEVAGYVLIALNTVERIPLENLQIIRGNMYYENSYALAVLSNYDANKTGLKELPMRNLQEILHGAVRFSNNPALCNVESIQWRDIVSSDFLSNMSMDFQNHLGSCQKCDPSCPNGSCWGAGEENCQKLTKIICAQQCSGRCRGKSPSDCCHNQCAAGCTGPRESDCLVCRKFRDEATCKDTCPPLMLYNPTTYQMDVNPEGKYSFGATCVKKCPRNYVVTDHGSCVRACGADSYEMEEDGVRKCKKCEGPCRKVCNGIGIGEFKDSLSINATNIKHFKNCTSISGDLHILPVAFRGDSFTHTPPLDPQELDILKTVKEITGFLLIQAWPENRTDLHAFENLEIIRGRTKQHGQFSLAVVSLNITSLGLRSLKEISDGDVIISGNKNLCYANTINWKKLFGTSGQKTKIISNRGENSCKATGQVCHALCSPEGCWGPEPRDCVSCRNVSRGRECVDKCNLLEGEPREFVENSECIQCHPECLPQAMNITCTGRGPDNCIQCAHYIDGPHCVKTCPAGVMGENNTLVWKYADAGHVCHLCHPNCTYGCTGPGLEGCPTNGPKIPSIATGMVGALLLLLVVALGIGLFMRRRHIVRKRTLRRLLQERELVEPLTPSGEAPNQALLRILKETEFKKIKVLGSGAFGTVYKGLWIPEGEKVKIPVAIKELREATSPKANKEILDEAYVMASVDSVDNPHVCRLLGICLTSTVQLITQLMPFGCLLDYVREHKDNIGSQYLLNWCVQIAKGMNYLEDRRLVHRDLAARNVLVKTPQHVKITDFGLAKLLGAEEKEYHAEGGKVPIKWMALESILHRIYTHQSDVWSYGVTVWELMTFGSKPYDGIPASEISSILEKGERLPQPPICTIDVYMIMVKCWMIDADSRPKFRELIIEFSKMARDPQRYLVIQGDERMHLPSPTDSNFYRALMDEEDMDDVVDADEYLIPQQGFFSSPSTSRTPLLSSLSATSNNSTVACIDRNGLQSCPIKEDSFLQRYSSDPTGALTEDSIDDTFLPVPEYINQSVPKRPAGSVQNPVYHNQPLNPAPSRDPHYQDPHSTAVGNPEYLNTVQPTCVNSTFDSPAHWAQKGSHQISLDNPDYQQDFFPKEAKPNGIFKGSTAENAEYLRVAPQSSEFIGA
Method in brief: (§1)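 Proliferation of mutant-dependent Ba/F3 lines is measured by Alamar Blue reduction over 3 hours, following a 72 hr incubation with test compound spanning 10-0.0005 μM final in threefold dilutions. Cells go in at 15,000 per well in RPMI containing 10% FBS the day before dosing.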

[2] = target: EGFR (A767_dupASV) expressing Ba/F3 stable cell line (Homo sapiens, UniProt P00533, DUP767-769, cells depend on it); test: Cellular proliferation (Alamar Blue) assay, EGFR A767_dupASV Ba/F3; settings: 72 hr, read-out: A767 IC50
EGFR (A767_dupASV) expressing Ba/F3 stable cell line, sequence (P00533 with tags, fused parts or gaps DUP767-769): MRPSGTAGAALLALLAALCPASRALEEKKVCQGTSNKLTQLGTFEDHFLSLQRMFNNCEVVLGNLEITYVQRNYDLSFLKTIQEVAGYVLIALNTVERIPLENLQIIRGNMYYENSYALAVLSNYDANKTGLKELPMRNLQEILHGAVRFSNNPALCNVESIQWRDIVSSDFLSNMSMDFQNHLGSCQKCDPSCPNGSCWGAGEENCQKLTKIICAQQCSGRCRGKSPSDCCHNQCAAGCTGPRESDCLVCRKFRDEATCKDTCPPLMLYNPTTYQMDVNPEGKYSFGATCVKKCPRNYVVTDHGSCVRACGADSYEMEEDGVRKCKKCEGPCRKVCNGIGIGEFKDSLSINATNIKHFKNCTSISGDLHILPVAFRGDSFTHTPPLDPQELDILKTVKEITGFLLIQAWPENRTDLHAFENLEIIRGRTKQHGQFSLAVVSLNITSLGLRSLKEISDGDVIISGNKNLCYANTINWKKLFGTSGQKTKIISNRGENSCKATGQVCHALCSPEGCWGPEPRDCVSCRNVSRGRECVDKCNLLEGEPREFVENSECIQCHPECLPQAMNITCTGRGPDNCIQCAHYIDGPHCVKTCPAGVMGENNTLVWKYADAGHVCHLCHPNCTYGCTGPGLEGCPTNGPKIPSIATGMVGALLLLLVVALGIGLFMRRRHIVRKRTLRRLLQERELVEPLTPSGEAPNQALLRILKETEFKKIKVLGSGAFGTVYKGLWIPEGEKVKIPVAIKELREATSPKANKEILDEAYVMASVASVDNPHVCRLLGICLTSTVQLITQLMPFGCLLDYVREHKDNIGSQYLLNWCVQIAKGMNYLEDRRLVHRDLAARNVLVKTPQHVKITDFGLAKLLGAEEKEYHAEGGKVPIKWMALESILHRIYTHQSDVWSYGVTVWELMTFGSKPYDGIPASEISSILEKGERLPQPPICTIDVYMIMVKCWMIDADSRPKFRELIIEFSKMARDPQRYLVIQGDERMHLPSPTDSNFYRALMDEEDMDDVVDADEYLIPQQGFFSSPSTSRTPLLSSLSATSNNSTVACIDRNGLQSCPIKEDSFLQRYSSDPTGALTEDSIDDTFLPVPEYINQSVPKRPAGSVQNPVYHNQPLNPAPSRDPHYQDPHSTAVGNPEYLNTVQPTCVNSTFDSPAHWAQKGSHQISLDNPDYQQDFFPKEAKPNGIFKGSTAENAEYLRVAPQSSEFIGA
Method in brief: as §1

A431 cells = test: Cellular proliferation (Alamar Blue) assay, A431
[3] = target: EGFR (H773insNPH) expressing Ba/F3 stable cell line (Homo sapiens, UniProt P00533, DUP771-773, cells depend on it); test: Cellular proliferation (Alamar Blue) assay, EGFR H773insNPH Ba/F3; settings: 72 hr, read-out: NPH IC50
EGFR (H773insNPH) expressing Ba/F3 stable cell line, sequence (P00533 with tags, fused parts or gaps DUP771-773): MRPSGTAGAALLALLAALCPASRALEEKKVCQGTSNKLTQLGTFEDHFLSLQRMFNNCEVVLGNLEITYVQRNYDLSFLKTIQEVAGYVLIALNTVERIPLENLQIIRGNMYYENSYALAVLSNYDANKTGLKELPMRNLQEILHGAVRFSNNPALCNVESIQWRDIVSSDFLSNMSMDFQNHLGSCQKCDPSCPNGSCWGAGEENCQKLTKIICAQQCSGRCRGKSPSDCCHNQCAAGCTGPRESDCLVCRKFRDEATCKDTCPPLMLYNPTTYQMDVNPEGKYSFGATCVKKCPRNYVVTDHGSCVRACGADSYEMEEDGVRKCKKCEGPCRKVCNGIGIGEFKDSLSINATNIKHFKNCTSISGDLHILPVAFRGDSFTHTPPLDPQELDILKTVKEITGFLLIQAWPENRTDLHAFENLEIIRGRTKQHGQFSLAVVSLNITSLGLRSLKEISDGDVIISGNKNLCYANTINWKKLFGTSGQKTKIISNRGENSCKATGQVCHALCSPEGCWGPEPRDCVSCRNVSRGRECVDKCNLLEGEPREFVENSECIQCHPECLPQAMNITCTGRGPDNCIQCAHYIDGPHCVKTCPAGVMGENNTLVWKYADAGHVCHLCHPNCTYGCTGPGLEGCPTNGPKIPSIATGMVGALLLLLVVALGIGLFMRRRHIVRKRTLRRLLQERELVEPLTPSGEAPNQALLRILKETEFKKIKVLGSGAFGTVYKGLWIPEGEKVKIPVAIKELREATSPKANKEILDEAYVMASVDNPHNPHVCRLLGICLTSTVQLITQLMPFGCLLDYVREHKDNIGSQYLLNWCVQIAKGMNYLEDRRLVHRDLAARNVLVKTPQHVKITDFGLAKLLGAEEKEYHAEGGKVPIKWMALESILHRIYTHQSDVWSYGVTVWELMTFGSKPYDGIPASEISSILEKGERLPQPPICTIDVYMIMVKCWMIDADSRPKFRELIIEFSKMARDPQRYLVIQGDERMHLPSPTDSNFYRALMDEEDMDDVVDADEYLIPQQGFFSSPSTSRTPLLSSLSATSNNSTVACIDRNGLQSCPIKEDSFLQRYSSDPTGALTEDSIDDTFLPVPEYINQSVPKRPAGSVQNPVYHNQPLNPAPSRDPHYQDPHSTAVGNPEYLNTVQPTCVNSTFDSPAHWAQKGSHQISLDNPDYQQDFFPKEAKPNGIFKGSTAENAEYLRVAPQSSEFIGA
Experimental: • 1. EGFR(D770_N771insSVD) expressing Ba/F3 stable cell line • 2. EGFR (A767_dupASV) expressing Ba/F3 stable cell line • 3. A431 cells • 4. EGFR (H773insNPH) expressing Ba/F3 stable cell line • 5. HER2 (A775_G776insYVMA) expressing Ba/F3 stable cell line Assay Procedure: • 1. Seed cells at 5000 for A431 and 15,000 cells for Ba/F3 in 100 μL/well in complete media (for A431: DMEM with […] and for Ba/F3 cells: RPMI with 10% FBS) in 96-well tissue culture plate. Leave outer wells without cells for background measurements. Incubate at 37 degree Celsius in […] humidified incubator for 16-18 hours. • 2. Add 0.025 ml of 5× concentration compound dilution or DMSO control. Final compound concentration range is 10-0.0005 μM prepared in 3-fold serial dilutions. Incubate for 72 hr at 37 degree Celsius in […] humidified incubator. • 3. Add 0.0125 ml Alamar Blue™ reagent to each well with multi-channel pipette and tap gently on each side of the plate to mix. Incubate for 3 hours at 37 degree Celsius in 5% CO2 humidified incubator. • 4. […] Data analysis was performed using XLfit 5.5.0.5.

[4] = target: HER2 (A775_G776insYVMA) expressing Ba/F3 stable cell line (Homo sapiens, UniProt P04626, DUP772-775, cells depend on it); test: Cellular proliferation (Alamar Blue) assay, HER2 A775_G776insYVMA Ba/F3; settings: 72 hr, read-out: YVMA IC50
HER2 (A775_G776insYVMA) expressing Ba/F3 stable cell line, sequence (P04626 with tags, fused parts or gaps DUP772-775): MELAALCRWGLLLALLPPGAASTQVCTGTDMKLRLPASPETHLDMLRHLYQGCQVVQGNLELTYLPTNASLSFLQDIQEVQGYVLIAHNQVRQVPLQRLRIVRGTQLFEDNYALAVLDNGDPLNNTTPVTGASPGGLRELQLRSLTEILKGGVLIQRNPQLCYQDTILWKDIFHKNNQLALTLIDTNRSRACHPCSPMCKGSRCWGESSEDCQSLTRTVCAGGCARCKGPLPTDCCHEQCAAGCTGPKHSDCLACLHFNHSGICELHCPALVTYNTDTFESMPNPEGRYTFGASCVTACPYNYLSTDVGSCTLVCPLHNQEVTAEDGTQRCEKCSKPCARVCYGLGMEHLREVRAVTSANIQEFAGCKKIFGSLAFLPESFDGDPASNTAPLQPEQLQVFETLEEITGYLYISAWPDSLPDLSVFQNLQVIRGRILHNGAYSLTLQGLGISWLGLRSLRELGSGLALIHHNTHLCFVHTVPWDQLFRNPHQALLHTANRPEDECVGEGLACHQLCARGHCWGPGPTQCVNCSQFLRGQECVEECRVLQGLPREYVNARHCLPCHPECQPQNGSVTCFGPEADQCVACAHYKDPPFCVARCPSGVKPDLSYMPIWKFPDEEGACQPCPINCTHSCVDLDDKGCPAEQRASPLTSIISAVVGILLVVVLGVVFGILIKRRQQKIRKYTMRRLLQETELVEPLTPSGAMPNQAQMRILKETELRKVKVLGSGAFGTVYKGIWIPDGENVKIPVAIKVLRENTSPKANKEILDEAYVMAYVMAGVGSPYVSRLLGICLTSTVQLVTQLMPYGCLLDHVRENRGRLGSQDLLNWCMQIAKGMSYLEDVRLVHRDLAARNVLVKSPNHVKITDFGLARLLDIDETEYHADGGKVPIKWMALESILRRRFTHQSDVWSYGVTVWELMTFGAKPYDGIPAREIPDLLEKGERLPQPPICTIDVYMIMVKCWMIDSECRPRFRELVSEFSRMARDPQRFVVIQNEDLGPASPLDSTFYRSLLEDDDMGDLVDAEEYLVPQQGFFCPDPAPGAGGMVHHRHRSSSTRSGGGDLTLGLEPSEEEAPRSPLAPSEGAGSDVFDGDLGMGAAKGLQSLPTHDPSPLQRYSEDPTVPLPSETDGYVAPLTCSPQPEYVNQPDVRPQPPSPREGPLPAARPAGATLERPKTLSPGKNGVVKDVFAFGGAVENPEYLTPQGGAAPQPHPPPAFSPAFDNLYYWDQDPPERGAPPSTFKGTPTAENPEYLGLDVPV
Method in brief: as §1

[5] = Homo sapiens, A-431; A431 cells, Alamar Blue, 72 hr; read-out: A431 IC50
[6] = Homo sapiens, A-431; A431 cells, 72 hr, Alamar Blue; read-out: A431 IC50

SMILES	GI50 [1]	GI50 [2]	pIC50 (A431 cells; [5])	GI50 [3]	GI50 [4]	pIC50 (A431 cells; [6])
C=CC(=O)Nc1ccc(F)c(Nc2nc(Nc3cnn(C4CCN(C)CC4)c3)ncc2Cl)c1 [Compound 14, N-(3-((5-chloro-2-((1-(1-methylpiperidin-4-yl)-1H-pyrazol-4-yl)amino)pyrimidin-4-yl)amino)-4-fluorophenyl)acrylamide]	0.32 µM	0.17 µM	5.74	0.192 µM	0.756 µM	–
C=CC(=O)Nc1ccc(F)c(Nc2nc(Nc3cnn(C)c3)ncc2-c2ccc(C(F)(F)F)cc2)c1 [Compound 37, N-(4-fluoro-3-((2-((1-methyl-1H-pyrazol-4-yl)amino)-5-(4-(trifluoromethyl)phenyl)pyrimidin-4-yl)amino)phenyl)acrylamide]	0.034 µM	0.073 µM	6.73	0.085 µM	0.974 µM	–
C=CC(=O)Nc1ccc(F)c(Nc2nc(Nc3ccc(CN(C)C)cc3)ncc2-c2ccc(C(F)(F)F)cc2)c1 [Compound 45, N-(3-((2-((4-((dimethylamino)methyl)phenyl)amino)-5-(4-(trifluoromethyl)phenyl)pyrimidin-4-yl)amino)-4-fluorophenyl)acrylamide trifluoroacetate]	0.105 µM	0.238 µM	7.57	0.149 µM	0.134 µM	–
C=CC(=O)Nc1ccc(F)c(Nc2nc(Nc3cnn(C)c3)ncc2-c2cncc(C(F)(F)F)c2)c1 [Compound 56, N-(4-fluoro-3-((2-((1-methyl-1H-pyrazol-4-yl)amino)-5-(5-(trifluoromethyl)pyridin-3-yl)pyrimidin-4-yl)amino)phenyl)acrylamide]	–	–	7.47	0.041 µM	0.092 µM	–
C=CC(=O)Nc1ccc(F)c(Nc2nc(Nc3cnn(C)c3)ncc2-c2ccc(C(F)(F)F)nc2)c1 [Compound 57, N-(4-fluoro-3-((2-((1-methyl-1H-pyrazol-4-yl)amino)-5-(6-(trifluoromethyl)pyridin-3-yl)pyrimidin-4-yl)amino)phenyl)acrylamide]	0.044 µM	0.071 µM	5.71	0.082 µM	0.177 µM	–
C=CC(=O)Nc1ccc(F)c(Nc2nc(Nc3cnn(C)c3)ncc2-c2ccc(F)cc2)c1 [Compound 63, N-(4-fluoro-3-((5-(4-fluorophenyl)-2-((1-methyl-1H-pyrazol-4-yl)amino)pyrimidin-4-yl)amino)phenyl)acrylamide]	0.06 µM	0.102 µM	5.89	0.116 µM	0.344 µM	–
C=CC(=O)Nc1ccc(F)c(Nc2nc(Nc3cnn(C)c3)ncc2-c2ccc(C)nc2)c1 [Compound 66, N-(4-fluoro-3-((2-((1-methyl-1H-pyrazol-4-yl)amino)-5-(6-methylpyridin-3-yl)pyrimidin-4-yl)amino)phenyl)acrylamide]	–	0.035 µM	6.86	0.073 µM	0.05 µM	–
C=CC(=O)Nc1ccc(F)c(Nc2nc(Nc3cnn(C)c3)ncc2-c2ccnc(OC(F)F)c2)c1 [Compound 71, N-(3-((5-(2-(difluoromethoxy)pyridin-4-yl)-2-((1-methyl-1H-pyrazol-4-yl)amino)pyrimidin-4-yl)amino)-4-fluorophenyl)acrylamide]	0.107 µM	0.107 µM	6.82	0.103 µM	0.226 µM	–
C=CC(=O)Nc1ccc(F)c(Nc2nc(Nc3cnn(C)c3)ncc2-c2cncc(Cl)c2)c1 [Compound 102, N-(3-((5-(5-chloropyridin-3-yl)-2-((1-methyl-1H-pyrazol-4-yl)amino)pyrimidin-4-yl)amino)-4-fluorophenyl)acrylamide]	0.035 µM	0.031 µM	6.77	0.048 µM	–	–
C=CC(=O)Nc1ccc(F)c(Nc2nc(Nc3cnn(C)c3)ncc2-c2cncc(C(F)F)c2)c1 [Compound 110, N-(3-((5-(5-(difluoromethyl)pyridin-3-yl)-2-((1-methyl-1H-pyrazol-4-yl)amino)pyrimidin-4-yl)amino)-4-fluorophenyl)acrylamide]	0.034 µM	–	6.51	0.034 µM	0.03 µM	–
C=CC(=O)Nc1ccc(F)c(Nc2nc(Nc3cnn(C)c3)ncc2-c2ccc3nccn3c2)c1 [Compound 133, N-(4-fluoro-3-((5-(imidazo[1,2-a]pyridin-6-yl)-2-((1-methyl-1H-pyrazol-4-yl)amino)pyrimidin-4-yl)amino)phenyl)acrylamide trifluoroacetate]	0.294 µM	0.388 µM	6.80	0.323 µM	–	–
C=CS(=O)(=O)Nc1ccc(F)c(Nc2nc(Nc3cnn(C)c3)ncc2-c2ccc(C(F)(F)F)cc2)c1 [Compound 253, N-[4-fluoro-3-({2-[(1-methyl-1H-pyrazol-4-yl)amino]-5-[4-(trifluoromethyl)phenyl]pyrimidin-4-yl}amino)phenyl] ethene-1-sulfonamide]	8.45 µM	8.75 µM	–	> 10 µM	–	5.40

Continued, values first:

GI50 [1]	GI50 [2]	pIC50 (A431 cells; [5])	GI50 [3]	GI50 [4]	pIC50 (A431 cells; [6])	SMILES
0.056 µM	0.099 µM	6.58	0.091 µM	0.219 µM	–	C=CC(=O)Nc1ccc(F)c(Nc2nc(Nc3cnn(C)c3)ncc2-c2ccc(Cl)cc2)c1 [Compound 61, N-(3-((5-(4-chlorophenyl)-2-((1-methyl-1H-pyrazol-4-yl)amino)pyrimidin-4-yl)amino)-4-fluorophenyl)acrylamide]
0.03 µM	0.036 µM	6.92	0.041 µM	0.026 µM	–	C=CC(=O)Nc1ccc(F)c(Nc2nc(Nc3cnn(C)c3)ncc2-c2cncc(C)c2)c1 [Compound 67, N-(4-fluoro-3-((2-((1-methyl-1H-pyrazol-4-yl)amino)-5-(5-methylpyridin-3-yl)pyrimidin-4-yl)amino)phenyl)acrylamide]
0.101 µM	0.108 µM	6.65	0.107 µM	0.128 µM	–	C=CC(=O)Nc1ccc(F)c(Nc2nc(Nc3cnn(C)c3)ncc2-c2ccnc(OC)c2)c1 [Compound 68, N-(4-fluoro-3-((5-(2-methoxypyridin-4-yl)-2-((1-methyl-1H-pyrazol-4-yl)amino)pyrimidin-4-yl)amino)phenyl)acrylamide]
0.011 µM	0.014 µM	7.19	0.021 µM	0.019 µM	–	C=CC(=O)Nc1ccc(F)c(Nc2nc(Nc3cnn(C)c3)ncc2-c2cncc(F)c2)c1 [Compound 69, N-(4-fluoro-3-((5-(5-fluoropyridin-3-yl)-2-((1-methyl-1H-pyrazol-4-yl)amino)pyrimidin-4-yl)amino)phenyl)acrylamide]
0.035 µM	0.036 µM	7.11	0.088 µM	0.123 µM	–	C=CC(=O)Nc1ccc(F)c(Nc2nc(Nc3cnn(C)c3)ncc2-c2ccc(OC(F)F)nc2)c1 [Compound 70, N-(3-((5-(6-(difluoromethoxy)pyridin-3-yl)-2-((1-methyl-1H-pyrazol-4-yl)amino)pyrimidin-4-yl)amino)-4-fluorophenyl)acrylamide]
–	0.036 µM	6.79	0.029 µM	0.057 µM	–	C=CC(=O)Nc1cccc(Nc2nc(Nc3cnn(C)c3)ncc2-c2ccc(OC)nc2)c1 [Compound 118, N-(3-((5-(6-methoxypyridin-3-yl)-2-((1-methyl-1H-pyrazol-4-yl)amino)pyrimidin-4-yl)amino)phenyl)acrylamide trifluoroacetate]
> 10 µM	> 10 µM	< 5.00	> 10 µM	–	–	C=CC(=O)Nc1ccc(F)c(Nc2nc(Nc3cnn(C)c3)ncc2-c2cccc(N(C)CCN(C)C)c2)c1 [Compound 125, N-(3-((5-(3-((2-(dimethylamino)ethyl)(methyl)amino)phenyl)-2-((1-methyl-1H-pyrazol-4-yl)amino)pyrimidin-4-yl)amino)-4-fluorophenyl)acrylamide]
1.42 µM	5.96 µM	–	2.81 µM	–	5.93	Cn1cc(Nc2ncc(-c3ccc(C(F)(F)F)cc3)c(Nc3cc(NC(=O)CCl)ccc3F)n2)cn1 [Compound 252, 2-chloro-N-[4-fluoro-3-({2-[(1-methyl-1H-pyrazol-4-yl)amino]-5-[4-(trifluoromethyl)phenyl]pyrimidin-4-yl}amino)phenyl]acetamide]
